Data set [1] relates to THP-1 cells. In words: Cell viability by MTT assay in THP-1 cells. Conditions: purchased compound. The class given is cell-based, human. The protocol: Two types of tetrazolium were used for viability assays. […] After 18 h of incubation, 0.5 mg/ml 3[4,5-dimethylthiazol-2-yl]-2,5-dipheyl tetrazolium bromide (MTT; Thermo Fisher Scientific) in assay media was added to each well at a final concentration of (0.5 mg/ml) and further incubated for 4-6 h. The absorbances at 570 and 650 nm were measured by a Tecan Infinite M200 plate reader, For RA FLS, the cells were dispersed into 96-well flat bottom plates (104/200 μL/well) and incubated overnight. The next day, RA FLS were treated with 5 μM of each compound for 18 h of incubation. Ten μl of WST-8 [2-(2-methoxy-4-nitrophenyl)-3-(4-nitrophenyl)-5-(2,4-disulfophewnyl)-2H-tetrazolium, monosodium salt] solution was added to each well and the cells were further incubated for 2-4 h. The absorbance was measured at 450 nm with Bio-Rad iMark plate reader (Bio-Rad Laboratories Inc., Hercules, CA, Unites States).
(Tetrazolium dyes change colour on reduction, which living cells bring about.)

Data set [2] has as its system THP-1 cells. The experiment in a line: IL-1ß stimulated CXCL8 release by THP-1 cells. The following applies: IL-1ß 2 ng/ml, overnight (FIG. 3C). The class given is cell-based, human. The protocol: THP-1 cells (10^5 cells/200 μL/well) and RA FLS (104/200 μL/well) were plated in 96 well plates and pre-treated with compound or vehicle for 1 h and then stimulated with either LPS (10 ng/ml), 1L-1ß (2 ng/ml) or TNF (2 ng/ml for THP-1 and 1 ng/ml for RA FLS). After 18 h of incubation, supernatants were collected and the levels of cytokines and chemokines in the culture supernatants were measured by ELISA according to the manufacturer's protocols (R&D systems, Minneapolis, MN).
The lead compounds belonging to chemotypes 1, 3, and 5 were tested for potency in suppressing chemokine and cytokine production by THP-1 cells in the presence of different inflammatory stimuli. The production of CXCL8 induced by either LPS (10 ng/ml), IL-1ß (2 ng/ml), or TNF (2 ng/ml) and TNF induced by IL-1ß (2 ng/ml) was assessed using serially diluted compounds. The compounds except 1-2 reduced the level of CXCL8 production stimulated by LPS in a dose dependent manner (FIG. 3A). However, the compounds from chemotype 5 enhanced CXCL8 release by THP-1 cells when stimulated with IL-111, or TNF (FIGS. 3B, C). […] The 1Cs0 for 1-1, 1-2 and 3-1 for IL-1ß stimulated CXCL8 release included 400, 1770, and 2020 nM, respectively, (FIG. 3C).

In a further data set the test system is RA FLS. The experiment in a line: Synergy of compound 1-1 with DEX in TNF stimulated RA FLS (isobologram). The class given is cell-based, human. The protocol: Drug synergy analysis was performed using lsobologram plots which were calculated according to reported procedures to compute IC50 and determine synergism. IC50 is computed from the median effect equation. Synergism analysis is carried out using the Combination index (Cl)-isobol method. Data analysis was performed using the CompuSyn software available on combisyn.com, Detailed methodology was used as described in a prior report. […] This is followed by Cl-isobol method to quantitatively assess the synergism between these inhibitor drugs. […] From the median effect equation, the estimated dose (i.e., D) necessary to produce the inhibition (i.e., Fa, Fu) obtained by the combination was calculated. […]
In the pathogenesis of rheumatoid arthritis, fibroblast-like synoviocytes (RA FLS) are a primary source of inflammatory cytokines and chemokines in inflamed joints. The immunomodulatory effects and cytotoxicity of compound 1-1 on RA FLS was analyzed. […] To assess the synergistic effect of compound 1-1 with DEX in RA FLS, IL-6 and CXCL8 suppression was analyzed by co-titrating DEX and compound 1-1 in cultures with TNF stimulated RA FLS (FIG. 7A, B).

For data set [3], the target named is metabotropic glutamate receptor subtype 4 (mGluR4) (Homo sapiens, UniProt Q14833). The following applies: previously described in another system; cited from earlier work.
Sequence of metabotropic glutamate receptor subtype 4 (mGluR4) (Q14833 33-912): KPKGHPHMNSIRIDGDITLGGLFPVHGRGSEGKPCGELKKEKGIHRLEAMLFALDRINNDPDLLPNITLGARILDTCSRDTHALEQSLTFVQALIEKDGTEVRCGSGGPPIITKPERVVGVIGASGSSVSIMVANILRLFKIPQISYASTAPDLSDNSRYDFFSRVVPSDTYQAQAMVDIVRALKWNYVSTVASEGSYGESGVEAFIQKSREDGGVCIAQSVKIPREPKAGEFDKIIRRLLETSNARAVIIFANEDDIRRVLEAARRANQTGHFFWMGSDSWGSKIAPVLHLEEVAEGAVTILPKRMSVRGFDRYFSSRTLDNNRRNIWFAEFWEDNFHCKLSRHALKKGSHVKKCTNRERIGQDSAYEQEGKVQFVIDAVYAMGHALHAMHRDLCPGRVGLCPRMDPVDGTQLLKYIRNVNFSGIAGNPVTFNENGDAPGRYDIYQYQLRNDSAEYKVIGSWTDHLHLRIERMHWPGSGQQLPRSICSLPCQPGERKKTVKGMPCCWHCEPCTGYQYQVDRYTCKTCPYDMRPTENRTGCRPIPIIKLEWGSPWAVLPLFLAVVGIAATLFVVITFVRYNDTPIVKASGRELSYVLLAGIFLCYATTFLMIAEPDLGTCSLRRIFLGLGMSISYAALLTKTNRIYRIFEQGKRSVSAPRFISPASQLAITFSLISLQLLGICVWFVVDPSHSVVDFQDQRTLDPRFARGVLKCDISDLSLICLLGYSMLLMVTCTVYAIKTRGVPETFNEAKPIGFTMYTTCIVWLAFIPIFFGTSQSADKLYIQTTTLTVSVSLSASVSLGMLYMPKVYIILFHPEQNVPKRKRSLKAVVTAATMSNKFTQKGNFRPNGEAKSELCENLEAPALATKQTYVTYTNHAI

One may read the IC50 as the midpoint of a concentration-inhibition curve.

As for `Cc1ccc(-n2ncc3c(NC4CCCCC4)ncnc32)c(C)c1` [Compound 1-1], the “% Cellular Viability (Purchased)” value with THP-1 cells [1] turned out to be 98.7%. The IC50 with THP-1 cells [2] was 400 nM. Also, the “Synergistic effect with DEX, CXCL8 release” value in the data set with RA FLS (isobologram (FIG. 7C)) is reported as “synergistic effects”. In addition, the “Synergistic effect with DEX, IL-6 release” value in the data set with RA FLS (isobologram (FIG. 7D)) is given as “synergistic effects”. Also, the “Modulation of mGluR4” value in data set [3] is reported as “positive allosteric modulator”.

Source of the values: patent US20230365570A1, “COMPOUNDS WITH GLUCOCORTICOID SPARING EFFECTS AND USES THEREOF” (The Regents of the University of California, priority 2020, published 2023).
